Experimental findings from US7282215B2, “Supports for photosensitizer formulations” (The University of British Columbia, priority 2000, dated 2007) are described below.

Read-outs that look alike come from different tables or passages of the source. Marks after values point to notes of the source that are not given here.

The conditions of data set [1]: JM4 at 2 mg/ml, after overnight storage and centrifugation. The procedure:
1 to 2 mg drug and 25-100 mg Pluronic are combined in methylene dichloride (CH2Cl2) to yield drug concentration of 1 mg/ml. CH2Cl2 is removed rapidly by rotary evaporation (Rotavapor R-124, Bucchi B172 Vacobox pump) at 50°, at maximum speed of rotation. Once a steady minimum pressure is achieved, the flask is held under vacuum for a further 20-30 min. […] Samples are kept overnight at room temperature to allow unincorporated drug to fall out, and then spun at 14,000 rpm {Eppendorff, Microfuge} for 30 min. Supernatant is decanted off into a fresh Eppendorff vial, and diluted 1:100 in the iso-osmolar medium used for thin film hydration (PBS or lactose) for determination of absorbance 690 nm (A690). Formulations are stored at 4° C. or frozen at −20° C. for long term storage.
In this experiment the following three selected dihydroxychlorins were examined for formulation with 10% P123. Each of the drugs was prepared to a final concentration level of 1 mg/ml and the formulation protocol used is described in Example 5. These compounds were prepared as described in U.S. patent application Ser. Nos. 09/551,159 and 09/551,160, both filed Apr. 14, 2000, and No. 60/129,324, filed Apr. 14, 1999, all three of which are hereby incorporated by reference as if fully set forth. One of these compounds, JM4, was further tested for drug incorporation using 2.5 to 10% P123.

Data set [2] in a line: Drug loading of liposomal versus 10% P123 formulations. Type of data set: physicochemical. Particulars: prepared at 2 mg/ml; for Drug loading, P123: Pluronic P123 10% weight/volume; for Drug loading, Liposome: liposomal formulation. The method, then:
5 mg drug and lipids (40% EPG in DMPC) are combined in CH2Cl2 at a drug to lipid ratio of 1:10 w/w in 250 ml round bottom flask. The maximum concentration of drug in solvent is 2 mg/ml. CH2Cl2 is removed rapidly as described in Example 5. The resulting thin film is hydrated with 2.5 ml lactose solution (9.5% w/v) using hand swirling with glass beads at 40° C. Extrusion using Model 4T (Lipex Biomembranes Inc. B.C., Canada) is carried out with the thermostat set at 40° C. The multilamellar vesicles (MLVs) arising from hydration steps of the liposomal formulation were also examined under the microscope. MLVs are successively extruded 5 times through each of the 400 nm, 200 nm and 100 nm polycarbonate membranes (Nuclepore PC, Costar). Extruded samples were diluted 1:100 in PBS (pH 7.4) and the absorbance determined at 690 nm wavelength.
In this experiment liposomal and block copolymer (micellar) photosensitizer formulations of A- and B-ring compounds of EA6 and B3 were compared. Each of the photosensitizer samples was prepared at a final drug concentration of 2 mg/ml. The block copolymer P123, and the liposomal formulations were prepared as described in the Examples 5 and 6, respectively.

Data set [3] can be described thus: Liposomal drug release to FBS by fluorescence (Ffbs/Ftx). Particulars: 37° C., n=2. The class given is in vitro ADME, bovine. The method, then:
This experiment test drug release from micro-thin film preparations and conventional thin film vesicles (76 nm and 98 nm) produced in Example 25. The assay was carried out using an Aminco-Bowman 2 Fluorescence Spectrometer. It has previously been observed in the liposomal photosensitizer formulations that the fluorescence from the photosensitizer drug is quenched due to the high ratio of drug to lipid present. […] Fluorescence signal from liposomal suspensions is therefore low, and increases only when the drug leaves the bilayer for an alternative binding site.
The increase in fluorescence signal reflects liposomal drug transfer in proportion to the rate and extent of transfer to added serum components.
The liposomal suspension is diluted with 5% Dextrose to give an absorbance of 0.1 at the excitation wavelength (430 nm). […] 100 μl of FBS is added to the cuvette, and increase in fluorescence is monitored (following a quick couple of inversions) over 2-3 min if necessary. Once a steady level is achieved (noted as Ffbs), the liposomal system is disrupted using 0.05% v/v Triton X-100 to get a 100% drug level. The maximum fluorescence level is noted as Ftx. The ratio of Ffbs/Ftx gives an estimation of liposomal drug release, and is highly reproducible (SD ˜0-2% for n=5). Reported release results are based on 2-5 repeat assays depending on instrumental stability.

A short description of data set [4]: Vesicle size of liposomal A-EA6 after microfluidization. The class given is physicochemical. The conditions noted are these: for Size: 10 mL batch. The procedure:
MLVs obtained from each of the conventional and micro-thin films of EA6-A in 3% w/w DMPG/DMPC prepared in Example 24 were introduced into the reaction chamber of a small microfluidizer (23 ml capacity; M110S, Microfluidics). […] The reaction chamber was immersed in ice, with the pressure transducer (Dynisco μPR 690) setting adjusted to 10,000 psi.
Use of the microfluidizer required priming the system with 9.2% lactose. The dead volume retained was considerably higher than stated in the manual, and as a result, only ˜2 mL of undiluted sample was recovered after the first pass in each case. […] Processing was carried out for a total of 6 passes, with 200 μl samples being removed for particle sizing following every pass. Due to limited recovery and dilution of the above samples, 2 larger batches (20 mL) were prepared using the conventional thin film process, and microfluidized with a total of 5 passes. To avoid excessive dilution of the unilammelar vesicles, recovery was limited to 8 mL.
Microfluidisation was repeated with larger volumes of 20 mL. […] The final concentration of A-EA6 in both batches (HH02-5 A and HH02-5 B) was 1.5 mg/mL. These samples were processed with the microfluidiser in a hot water bath at 45° C. instead of ice to prevent suspension temperature falling below the phase transition of DMPC in between passes. Size determination was carried out by laser light scattering on a NICOMP™ 370 Submicron Particle Sizer.

Experiment in data set [5]: as above
The class given is physicochemical.

The nature of data set [6]: pH studies of copolymer formulations. The conditions noted are these: acidification. Type of data set: physicochemical. The source says: Counteracting the oily nature of P123 could be achieved by incorporation of copolymer that is in solid form at room temperature. The use of 1% w/w F127 with 9% w/v P123 instead of 10% P123 (w/v) produced a thin film, which was more readily hydrated. […] This necessitates hydration of the solid drug-polymer with a very mild buffer to counteract acidification which occurs upon use of sterile packed distilled water as commonly practiced in clinical settings. Behavior of poloxamers is unaffected by pH, and the use of buffers would be entirely dependent on ionizable groups present on the drug substance.

Data set [7] deals with M1 rhabdomyosarcoma tumor. Briefly: PDT tumor recurrence in tumor mouse model. Type of data set: in vivo, DBA/2 mouse. The arrangement: key to Percent (%) Mice Tumor Free: Mice suffered from phototoxic (PT) reaction at the site of light exposure and were subsequently euthanized. The procedure:
Photosensitizer formulations were prepared in 10% w/v Pluronics as described in Example 4. BPD-MA was formulated in F127. B-ring compounds B-EA6 and B-B3, were prepared in P123 due to insufficient drug loading in F127. Liposomal BPD-MA formulation was Verteporfin™ and B-ring compounds were formulated in the same lipid composition. Where DMSO/plasma preparations were made, the DMSO dissolved drug was added directly to mouse plasma and the drug association with different plasma components was observed.
In these experiments the tumor model used was the DBA/2 mouse (males) inoculated intradermally with M1 rhabdomyosarcoma tumor cells (M1, ATCC. When tumors reached a diameter of 4-6 mm, the mice (n=10, unless other wise stated) were treated with photodynamic therapy (PDT). PDT involved intravenous injection of the formulated drug in 0.2 mL volume of PBS. This was followed by exposure of the tumor region to laser light (Argon pumped dye laser (5W), 690 nm, 50J/cm2) 15 min later. Animals were then monitored for tumor recurrence over a 20 day period post treatment.

Another data set concerns L1210 cells. Briefly: In vitro phototoxicity (MTT assay after light exposure). The class given is cell-based. The method, then:
Exposure to drugs was carried out in the presence and absence of fetal calf serum (FCS) as a model to study transfer of drug to cells in vivo. […] A suspension of L1210 cells was prepared and exposed to various drug formulations (drug concentrations ranging from 0-50 ng/ml) either in the absence or presence of 10% fetal calf serum (FCS). One hour later, the drug was removed by pelleting the cells by centrifugation. The pellet was briefly washed with 1 ml DME and resuspended in 5% FCS/DME. 100 μl of the cell suspension was aliquoted into 6 wells of a 96 well plate, and the plate exposed to light at 10 J/cm^2. Viability was determined 24 h post exposure using the MTT assay (Mosmann, J. Immunol. Meth. 65:55-63, 1983).

Regarding `Cc1ccc(-c2c3nc(c(-c4ccc(C)cc4)c4ccc([nH]4)c(-c4ccc(C)cc4)c4nc(c(-c5ccc(C)cc5)c5ccc2[nH]5)C(O)C4O)C=C3)cc1` (stereo not drawn) [JM4, 5, 10, 15, 20-tetra (para-methyl phenyl)-2,-3-dihydroxychlorin], the values for the Incorporation in data set [1] (P123 2.5% w/v), in data set [1] (P123 5% w/v) and in data set [1] (P123 10% w/v) were 0.92 mg/mL, 1.43 mg/mL and 2.00 mg/mL, respectively.
On to `C=Cc1c(C)c2cc3nc(cc4[nH]c(cc5nc(cc1[nH]2)C(C)=C5CCC(=O)OCCO)c(CCC(=O)OCCO)c4C)C1(C)C3=CC=C(C(=O)OC)C1C(=O)OC` (stereo not drawn) [A-EA6, Diethyleneglycol Ester A-ring], for which, in data set [2], the “Drug loading, P123” value came out at 1.82 mg/mL. For the same molecule, in data set [2], the “Drug loading, Liposome” value amounted to 0.98 mg/mL. For the same molecule, the “Drug release from liposomal formulation to 5% FBS” value in data set [3] (micro-thin film batch) came out at 72%; in data set [3] (thin film batch) it was 67%. In addition, the Size in data set [4] (conventional thin film, pass 3) is given as 81 + 21^2 nm; in data set [4] (conventional thin film, pass 4) it was 63 nm; in data set [4] (conventional thin film, pass 5), 66 nm; in data set [4] (conventional thin film, pass 6) it was 63 nm; in data set [4] (micro-thin film, pass 1), 141 + 54^2 nm; in data set [4] (micro-thin film, pass 2) it was 62 nm. Further, the Size was determined as 67 nm in data set [4] (micro-thin film, pass 3); 59 nm in data set [4] (micro-thin film, pass 4); 60 nm in data set [4] (micro-thin film, pass 5); 57 nm in data set [4] (micro-thin film, pass 6). The Mean vesicle size in data set [4] (conventional thin film, 20 mL, after the first pass) turned out to be 98 nm; in data set [5] (micro-thin film, 20 mL, after the first pass), 76 nm. For the same molecule, the Vesicle size in data set [4] (microfluidized, 10 mL volume) is listed as ~60 nm; in data set [5] (final extrusion through 100 nm filters), 100-110 nm.
Regarding `C=Cc1c(C)c2cc3nc(cc4[nH]c(cc5nc(cc1[nH]2)C(C)=C5CCC(=O)OC)c(CCC(=O)OC)c4C)C1(C)C3=CC=C(C(=O)O)C1C(=O)OC` (stereo not drawn) [A-B3], in data set [2], the “Drug loading, P123” value is 1.33 mg/mL and the “Drug loading, Liposome” value is 1.84 mg/mL.
For the molecule `C=Cc1c(C)c2cc3nc(cc4[nH]c(cc5nc(cc1[nH]2)C1(C)C5=CC=C(C(=O)OC)C1C(=O)OC)c(C)c4CCC(=O)OCCO)C(CCC(=O)OCCO)=C3C` (stereo not drawn) [B-EA6], in data set [2], the “Drug loading, P123” value is 0.37 mg/mL. The “Drug loading, Liposome” value in data set [2] was 0.06 mg/mL. The “pH dependency of formulation stability” value in data set [6] is on record as “does not display any pH-dependency”. Moreover, in data set [7] (1 mg/kg, formulated in P123, tumor bearing mice), the “Reaction at the irradiated site” value is reported as “strong phototoxic reaction (edema)”. The “Percent (%) Mice Tumor Free” value was found to be 90% in data set [7] (Liposomal, 1.0 mg/kg i.v., 690 nm 50J/cm2 15 min later, Day 7); 70% in data set [7] (Liposomal, 1.0 mg/kg, Day 14); 60% in data set [7] (Liposomal, 1.0 mg/kg, Day 20); 80% in data set [7] (Pluronic P123, 0.5 mg/kg, Day 7); 60% in data set [7] (Pluronic P123, 0.5 mg/kg, Day 14); 40% in data set [7] (Pluronic P123, 0.5 mg/kg, Day 20). Besides, the “Percent (%) Mice Tumor Free” value is on record as “PT^1” in data set [7] (Pluronic P123, 1.0 mg/kg, Day 7); “PT^1” in data set [7] (Pluronic P123, 1.0 mg/kg, Day 14); “PT^1” in data set [7] (Pluronic P123, 1.0 mg/kg, Day 20). Further, the LD50 with L1210 cells (Carrier Copolymer (P123), +FCS (10%)) is 12.9* ng/ml; in the data set with L1210 cells (Carrier Copolymer (P123), −FCS), 2.06* ng/ml; in the data set on L1210 cells (Carrier DMSO, +FCS (10%)) it was 20.0 ng/mL; in the data set on L1210 cells (Carrier DMSO, −FCS), 4.7 ng/mL; with L1210 cells (Carrier Liposomal, +FCS (10%)), 19.7 ng/mL; with L1210 cells (Carrier Liposomal, −FCS, 1 h drug, light 10 J/cm^2, MTT 24 h), 4.7 ng/mL.
